Experimental data reported in publication PMC7701510, “Identification of HN252 as a potent inhibitor of protein phosphatase PPM1B” (Journal of Cellular and Molecular Medicine, 2020).

Legend:
[1] = biological target: T1, SSH1 (Homo sapiens, UniProt Q8WYL5); assay: pNPP hydrolysis phosphatase assay (selectivity panel); type: biochemical; conditions: pNPP as substrate
T1 sequence (Q8WYL5 1-1049): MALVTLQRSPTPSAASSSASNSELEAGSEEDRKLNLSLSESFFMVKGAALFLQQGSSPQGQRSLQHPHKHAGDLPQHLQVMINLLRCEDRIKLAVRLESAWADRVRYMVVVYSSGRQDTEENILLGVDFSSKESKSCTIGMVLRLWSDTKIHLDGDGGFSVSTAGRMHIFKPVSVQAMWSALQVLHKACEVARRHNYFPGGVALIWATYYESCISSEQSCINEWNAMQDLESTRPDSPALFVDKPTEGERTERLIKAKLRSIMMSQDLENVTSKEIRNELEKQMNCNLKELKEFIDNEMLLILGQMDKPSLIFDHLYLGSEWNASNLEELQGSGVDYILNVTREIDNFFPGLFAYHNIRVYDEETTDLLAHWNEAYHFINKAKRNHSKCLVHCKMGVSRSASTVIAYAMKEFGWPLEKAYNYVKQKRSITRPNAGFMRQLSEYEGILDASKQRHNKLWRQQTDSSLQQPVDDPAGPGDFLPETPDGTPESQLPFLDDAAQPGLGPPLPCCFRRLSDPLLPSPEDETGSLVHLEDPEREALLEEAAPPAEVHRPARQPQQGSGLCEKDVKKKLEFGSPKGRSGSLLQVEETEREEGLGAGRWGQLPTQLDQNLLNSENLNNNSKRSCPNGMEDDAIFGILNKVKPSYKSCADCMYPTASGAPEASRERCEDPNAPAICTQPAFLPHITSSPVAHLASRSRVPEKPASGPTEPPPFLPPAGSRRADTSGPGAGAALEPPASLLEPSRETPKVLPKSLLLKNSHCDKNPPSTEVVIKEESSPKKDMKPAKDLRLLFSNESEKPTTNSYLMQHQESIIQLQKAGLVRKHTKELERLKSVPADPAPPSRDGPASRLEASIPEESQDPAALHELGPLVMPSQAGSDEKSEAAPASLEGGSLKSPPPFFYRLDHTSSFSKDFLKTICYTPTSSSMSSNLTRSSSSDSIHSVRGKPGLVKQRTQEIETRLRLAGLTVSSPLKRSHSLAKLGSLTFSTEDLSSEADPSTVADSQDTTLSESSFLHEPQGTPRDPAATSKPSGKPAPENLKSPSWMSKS
Procedure: The kinetic assays of PPM1B were carried out at 37°C in 0.1 M acetic acid buffer (50 mM Tris, 40 mM Mn^2+, pH 7.0). The p‐nitrophenyl phosphate (pNPP, Sigma) was used as the substrate which could be conveniently measured at 405 nm. Reactions were started by addition of pNPP to a reaction mixture containing PPM1B (0.4 μM PPM1B, final concentration) and various concentrations of HN252 and stopped by addition of 0.5 M EDTA (pH 10.0) after an appropriate time. The Km value of PPM1B towards pNPP hydrolysis (3.6 mM for pNPP) was used to determine the IC50. The IC50 values, the inhibition constant Ki and inhibition pattern were evaluated as previously described. ^18 The kinetic assays of HN252 towards to other protein phosphatases were carried out as previously described. ^19

[2] = biological target: T2, PPM1B (Homo sapiens, UniProt O75688); assay: Fluorescence quenching assay (fluorescence titration); type: binding; conditions: PPM1B 8 μM, 25°C, excitation 280 nm, emission 332 nm; read-out: dissociation constant Kd
T2 construct: inferred from pET-28a vector and Ni-NTA purification; made in house; host or cells: Escherichia coli BL21
T2 sequence (O75688 1-479): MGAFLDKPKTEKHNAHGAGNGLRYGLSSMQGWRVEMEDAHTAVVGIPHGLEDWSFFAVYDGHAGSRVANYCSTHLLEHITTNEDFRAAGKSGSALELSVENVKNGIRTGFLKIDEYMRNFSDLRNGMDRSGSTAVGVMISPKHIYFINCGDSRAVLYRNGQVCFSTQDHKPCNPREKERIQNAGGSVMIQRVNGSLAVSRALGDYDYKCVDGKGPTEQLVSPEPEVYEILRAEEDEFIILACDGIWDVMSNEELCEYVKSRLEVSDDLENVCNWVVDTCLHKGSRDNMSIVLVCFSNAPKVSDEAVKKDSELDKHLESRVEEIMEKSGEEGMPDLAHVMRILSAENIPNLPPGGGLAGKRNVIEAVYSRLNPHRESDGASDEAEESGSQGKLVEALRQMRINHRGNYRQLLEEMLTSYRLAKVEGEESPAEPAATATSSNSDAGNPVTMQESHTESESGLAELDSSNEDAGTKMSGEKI
Procedure: The interaction between PPM1B recombinant proteins and compound HN252 was determined by fluorescence titration as previously described. ^20 PPM1B proteins were dialysed against PBS and incubated with different concentrations of HN252. The fluorescent quenching was conducted at 25°C, and fluorescence spectra were recorded by Cytation 5 Multi‐Mode Plate Reader (BioTek) using excitation at 280 nm and emission at 332 nm. The dissociation constant (Kd) of HN252 to PPM1B was calculated as previously described. ^20

**Q.** With `Nc1cc(-c2ccc(-c3ccc(O)c(O)c3)cc2)ccc1C(=O)O` [HN252] as the molecule, how does the IC50 [1] read?
**A.** 54.6 ± 13 µM

**Q.** And the Kd [2]?
**A.** 42.3 ± 6.47 µM
